From article PMC13327620, “A Deep‐Red‐Absorbing Osmium(II) Complex as a Photosensitizer for Photodynamic Therapy Inducing Immunogenic Cell Death” (Angewandte Chemie (International Ed. in English), 2026) come the findings set out here.

The structures appear in SMILES notation.

A short description of series [1]: Photophysical properties (fluorescence and singlet oxygen quantum yield, lifetime). It is filed as physicochemical. To be noted: in ethanol. The procedure: System Inc, Phoenixville, PA, USA). The excitation beam is separated by a SPEX dual […]
network monochromator (1200 lines / mm blazed at 330 nm). The fluorescence was […]
measured by the UV-Visible detector via the SPEX dual network emission […]
monochromator (1200 lines / mm blazed at 500 nm). Singlet oxygen production was […]
measured with an infrared detector InGaAs (800 - 1550 nm) via the dual network […]
emission monochromator SPEX (600 lines / mm blazed at 1 µm).
All spectra were measured using 4-sided quartz cells. The absorption values of the […]
references and samples at the excitation wavelength were adjusted to 0.2. All emission […]
spectra were normalized to the same absorbance for the purpose of comparison.
[Ru(bpy)3]2+ in acetonitrile was chosen as standard for both fluorescence and singlet […]
oxygen quantum yield determination. Fluorescence quantum yield of [ Ru(bpy)3]2+ i n […]
acetonitrile is evaluated at 0.077.[5] Singlet oxygen quantum yield of [ Ru(bpy)3]2+ i n […]
acetonitrile is evaluat ed at 0.77.[6]
Time-resolved experiments were performed using for excitation: a pulsed laser diode […]
emitting at 407 nm (LDH-P-C-400M, FWHM < 70 ps, 1 MHz) coupled with a driver […]
PDL 800- D (both PicoQuant GmbH, BERLIN, Germany) and for detection: an […]
avalanch e photodiode SPCM-AQR-15 (EG & G, VAUDREUIL, Can ada) coupled with […]
a 650 nm long- wav e p ass filter as det ection system. The acquisition was p erformed by […]
a PicoHarp 300 module with a 4 channels router PHR-800 (both PicoQuant GmbH, […]
BERLIN, Germany ). Th e fluores cence decays were recorded using the single photon […]
counting method. Data were collected up to 1000 counts accumulated in the maximum […]
channel and analyzed using Time Correlated Single Photon Counting (TCSPC) […]
software Fluofit (PicoQuant GmbH, BERLIN, Germany) based on iterative reconvolution using a Levensberg- M arquandt alg oritm, enabling the obtention of multi-exponential profiles (m ainly one or two exponenti als in our cases ). […]

A further series concerns MCA205 cells. In words: In vivo vaccination and rechallenge, MCA205 model. Further details: species or system C57BL/6 mice. The following applies: vaccination with MCA205 cells pre-treated with 500 µM Cisplatin or 1400 µM Oxaliplatin (dark), 5.5 µM Ce6 or 3 µM Os2 (740 nm). The source says:
Next, we used these concentrations in the MCA205 vaccination and rechallenge model on C57BL/6 mice to test the in vivo ICD effect of Os2, following the same experimental procedure as that used for CT26‐luc cells in Figure 5A. […] Body weights remained stable across all groups throughout the study, further supporting the good in vivo biosafety of Os2.
The BALB/c female mice were randomly divided into 4 groups with each group containing 5 mice, which were named as Control group, Cisplatin group, Ce6 group and Os2 group. CT26-luc cells wer e treat ed in vitro with 600 µM Cisplatin in the dark, 6.5 µM Ce6 or 1.8 µM Os2 upon 740 nm LED light irradiation (60 min, 12.6 J cm-2) following the methods described above. Subsequently, treated CT26-luc cells (3×10^5 cells in 100 µ L sterile PBS) or 100 µ L sterile PB S were injected subcutaneously into the left flank of each mouse. One week later, mice were r echalleng ed by injection with untreated CT26- luc cells (1×10^6 cells in 100 µL sterile PBS). The mice were monitored by an in vivo imaging system (Biospace Lab, Photon Imager Optima) and the tumor volume was calculated with the following equation: tumor volume = width 2 × length × […]
In vivo vaccination study on MCA205 cells
The C57BL/6 mice were randomly divided into 5 groups with each group containing 10 mice, whi ch w ere nam ed as Control group, Cisplatin group, Oxaliplatin group, Ce6 group and Os2 group. M CA205 cells were treated in vitro with 500 µM Cisplatin o r 1400 µM Oxaliplatin in the dark, 5.5 µM Ce6 or 3 µM Os2 upon 740 nm LED light irradiation (60 min, 12.6 J cm-2) following the methods described above. Subsequently, treated MCA205 cells (3 ×10^5 cells in 100 µ L sterile PBS) or 100 µ L sterile PBS were injected subcutaneously into the left flank of each mouse. One week later, mice were rechallenged by injection with untreated MCA205 cells (1×10^6 cells in 100 µ L sterile PBS). The tumor volume was calculated with the following equation: tumor volume =

Turning to `C=Cc1c(C)c2cc3nc(c(CC(=O)O)c4[nH]c(cc5nc(cc1[nH]2)C(C)=C5CC)c(C)c4C(=O)O)[C@@H](CCC(=O)O)[C@@H]3C` [Ce6, chlorin e6], in series [1], the Fluorescence lifetime amounted to 4.7 ns, the Fluorescence quantum yield amounted to 0.20 and the “Singlet oxygen quantum yield” value is given as 0.65. In addition, the Tumor growth entry in the series on MCA205 cells is “partial suppression”.
